Legend:
[1] = test system: HCT116 human colorectal cancer cells; experiment: Tumorigenicity assay, HCT116 xenografts in nude mice; format: in vivo; conditions: for Effect with C. novyi-NT / Effect alone: nude mice; for Effect alone: agent alone
From the text: (§1) All animal protocols were designed in accordance with the Guide for the Care and Use of Laboratory Animals (NIH Publication 86-23) and were approved by the Johns Hopkins University Institutional Animal Care and Use Committee. Six to eight week old mice were implanted subcutaneously on one flank with 3 to 6 million cancer cells. Establishment of tumors of 150 to 500 mm3 took 8 to 21 days, depending on the cell type. C. novyi-NT spores (300×106) and anti-microtubule agents were generally administered by a single intravenous injection through the tail vein in a total volume of 300 to 500 ul phosphate-buffered saline (PBS). Quantitative assessment of tumor growth was performed by measuring subcutaneous tumor grafts (major and minor axis) using electronic calipers. Tumor volume was calculated using the equation: length×width2×0.5. Progression free survival was defined as the length of time following treatment before any increase in tumor volume was observed. Mice were considered “cured” if no tumor was evident three months after treatment. Animals were weighed at least twice a week and carefully observed for signs of toxicity every day for the first week following treatment and then twice a week thereafter. At least five mice were used for each treatment arm described in the Experimental Results.
The timing, route, and dose of agents are critical for the success of any experimental therapy. When two agents are combined, the number of variables that must be tested increases exponentially. To simplify interpretation of the comparisons between various anti-microtubule agents, pilot studies with representative drugs were performed.
Eighteen agents known to interact with microtubules were each tested in this manner in nude mice harboring xenografts of HCT116 human colorectal cancer cells. At least five mice harboring tumors of 150 to 500 mm3 in size were used for each experimental arm. Two classes of responses were noted. One type of response was characterized by a rapid hemorrhagic necrosis, observed only with agents that inhibited microtubule […] (FIG. 1A, B). The other type of response was characterized by a slow regression, observed with agents that stabilized microtubules (FIG. 2A, B).

[2] = test system: HuCC-T1 cholangiocarcinoma; experiment: Tumorigenicity assay, HuCC-T1 xenografts; format: in vivo, nude mice
From the text: as §1
We next evaluated the responses to COBALT/HTI-286 in other murine tumor models. […]

[3] = Mortality following COBALT; format: in vivo, nude mice; conditions: deaths within one week, pooled xenograft models
From the text: as §1
(§2) This toxicity was observed only when the combination of C. novyi-NT spores and the drugs was administered and not with either the bacteria or the drugs alone. […] Though major tumor regressions were common, few mice died as a result of therapy (Table 2) No deaths occurred after treatment with the microtubule stabilizers plus C. novyi-NT, while 4% to 8% of mice treated with microtubule destabilizers plus C. novyi-NT died. The only other toxicity observed was transient weight loss (Table 3). Mice treated with the drugs alone lost ˜5 to 10% of their body weight within 7 days, while weight loss after treatment with C. novyi-NT plus these drugs varied from 8% to 18%. All weights recovered to pre-treatment levels within two weeks.

Weight loss after COBALT = format: in vivo, nude mice; conditions: maximum average weight loss relative to weight one day prior to treatment, HCT116 xenografts
From the text: as §1, §2

[4] = test system: tumor blood flow in HCT116 xenografts; experiment: Assessment of blood perfusion (Hoechst 33342) in HCT116 xenografts; format: in vivo, mice; conditions: HTI-286 1.7 mg/kg or docetaxel 50 mg/kg iv, 3 and 24 hr after treatment
Description: Three or 24 hours after treatment, mice were intravenously injected with Hoechst 33342 (40 mg/kg) and euthanized two minutes later. Tumors were cryosectioned and viewed by fluorescence microscopy after counter-staining with acridine orange (AO). Endothelial cells are stained blue when they have taken up the Hoechst 33342 dye. Adjacent sections were stained with MECA-32 monoclonal antibody, a vascular endothelium-specific marker. Arrows point towards normal blood vessels unaffected by HTI-286 treatment in overlying skin.
Mice bearing HCT116 xenografts of 300 to 500 mm3 were injected intravenously with anti-microtubule agents. At various times thereafter, they were intravenously injected with Hoechst 33342 (40 mg/kg), then euthanized two minutes later by CO2 narcosis. Tumors were fixed in Tissue-Tek OTC compound (Sakura Finetek, Torrance, Calif.) and stored at −80° C. Frozen sections 10 microns in thickness were prepared with a Leica Microsystems cryostat and counterstained with acridine orange, 7.5 ug/ml, in PBS for 5 minutes. […] At least three sections of each of three tumors, representing middle and distal parts of the tumor, were examined under fluorescence microscopy for each agent tested, and representative results are illustrated in the figures. […]

[5] = test system: Glucose Transporter-1 (Glut-1); experiment: Immunohistochemistry for Glut-1 (hypoxia marker) in HCT116 xenografts; format: in vivo, mice; conditions: HTI-286 1.7 mg/kg or docetaxel 50 mg/kg iv, 6 hr after treatment
Description: Mice were euthanized six hours after treatment. Tumors were sectioned and H & E stained. Adjacent sections were stained for Glut-1 expression, a marker for hypoxia. Cells positive for Glut-1 appear brown. Arrows indicate examples of hemorrhage.
Paraffin sections were deparaffinized, incubated with proteinase K (Invitrogen), heated at 95° C. for 20 min in citrate buffer (pH 6), and treated with peroxidase blocking reagent (Dako). Sections were incubated with a monoclonal antibody against Glucose Transporter-1 (Glut-1, Dako) followed by a biotin-conjugated secondary antibody (Pierce). A third layer consisting of HRP-conjugated anti-biotin (DAKO) was followed by diaminobenzidine (Sigma) staining. Sections were counterstained with eosin.
Two independent tests of this hypothesis were performed. First, we directly assessed hypoxia within tumors by staining with an antibody to Glucose Transporter-1 (Glut-1). Glut-1 has been extensively studied and shown to be specifically expressed only in hypoxic regions (Airley et al., 2001).

C. novyi-NT = experiment: Quantification of C. novyi-NT in tumors by real-time PCR; format: in vivo, C. novyi-NT in mice bearing HCT116 xenografts; conditions: versus spores without drug; HCT116 xenografts; SD printed +/−0.08 (HTI-286), +/−0.3 (docetaxel)
Description: Mice bearing HCT116 xenografts were treated with C. novyi-NT spores with or without HTI-286 (1.7 mg/kg) as described above. Following euthanasia 24-48 hr later, tumors were harvested, weighed, minced, and Dounce-homogenized. Genomic DNA was isolated using the Qiagen Genomic DNA Buffer Set and Genomic-tip 100/G. 25 ng of DNA was used in a PCR using the conditions described in (Vogelstein and Kinzler, 1999) The following primers specific for the C. novyi-NT phospholipase C gene were used: 5′-[…] (SEQ ID NO:1) and 5′-[…] (SEQ ID NO:2). No detectable primer dimers formed and no nonspecific amplification of mouse or xenograft genomic DNA occurred with these primers and PCR conditions. Real-time PCR was performed using an iCycler, and threshold cycle numbers were calculated using the iCycler Optical system interface software (Bio-Rad Lab, Hercules, Calif.). Averages of the threshold cycle number (Ct) of triplicate measurements per tumor were obtained, and three different tumors were studied for each treatment group. The results were expressed as the difference between the Ct of the treated tumor and the Ct of untreated controls, normalized to tumor weight.
Second, we directly tested the size of bacterial populations within tumors by measuring the number of bacteria at various times following intravenous injection of C. novyi-NT spores into mice bearing HCT116 xenografts. […]

[6] = 50 mg/kg × 1 (iv) with 3×108 C. novyi-NT spores iv

For `CCC(=O)O[C@H]1C[C@H]2OC[C@@]2(OC(C)=O)[C@H]2[C@H](OC(=O)c3ccccc3)[C@]3(O)C[C@H](OC(=O)[C@H](O)[C@@H](NC(=O)OC(C)(C)C)c4ccco4)C(C)=C([C@@H](O)C(=O)[C@]12C)C3(C)C` [MAC-321, 5β,20-epoxy-1,2α-,4-,7β-,10β-,13α-hexahydroxytax-11-en-9-one 4 acetate 2 benzoate 7 propionate 13-ester with (2R,3S)—N-tertbutoxycarbonyl-3-(2-furyl)isoserine], the “Effect with C. novyi-NT” value ([1]; 10 mg/kg × 1 (iv) with 3×108 C. novyi-NT spores iv) was “++ (10% to 50% shrinkage in tumor volume relative to pre-treatment size)”, the “Effect with C. novyi-NT” value ([1]; 45 mg/kg × 1 (iv) with 3×108 C. novyi-NT spores iv) was “++++ (>20% cures)” and the “Effect with C. novyi-NT” value [1, 6] was “++++ (>20% cures)”. For the same compound, the “Effect with C. novyi-NT” value ([1]; 60 mg/kg × 1 (iv) with 3×108 C. novyi-NT spores iv) was “++++ (>20% cures)”, the “Effect with C. novyi-NT” value ([1]; 70 mg/kg × 1 (iv) with 3×108 C. novyi-NT spores iv) was “++++ (>20% cures)” and the Effect alone ([1]; 10 mg/kg × 1 (iv)) was “+”. For the same compound, the Effect alone ([1]; 45 mg/kg × 1 (iv)) was “+++ (>50% shrinkage in tumor volume relative to pre-treatment size)”, the Effect alone ([1]; 50 mg/kg × 1 (iv)) was “+++ (>50% shrinkage in tumor volume relative to pre-treatment size)” and the Effect alone ([1]; 60 mg/kg × 1 (iv)) was “+++ (>50% shrinkage in tumor volume relative to pre-treatment size)”. For the same compound, the Effect alone ([1]; 70 mg/kg × 1 (iv)) was “+++ (>50% shrinkage in tumor volume relative to pre-treatment size)”, the “mice cured (in words)” value ([1]; cured = no tumor evident three months after treatment) was “no mice” and the “mice cured (number of mice)” value [2] was “one of eight”. The “# dead (treatment-related deaths)” value ([3]; drug dose 45.0 mg/kg) was 0, the “# dead (treatment-related deaths)” value ([3]; drug dose 50.0 mg/kg) was 0 and the “# dead (treatment-related deaths)” value ([3]; drug dose 60.0 mg/kg) was 0. For the same compound, the “# dead (treatment-related deaths)” value ([3]; drug dose 70.0 mg/kg) was 0 and the “Weight Loss (%)” value (Weight loss after COBALT; drug dose 60.0 mg/kg) was 5.5%.
For `CC(=O)O[C@@]12CO[C@@H]1C[C@H](O)[C@@]1(C)C(=O)[C@H](O)C3=C(C)[C@@H](OC(=O)[C@H](O)[C@@H](NC(=O)OC(C)(C)C)c4ccccc4)C[C@@](O)([C@@H](OC(=O)c4ccccc4)[C@H]21)C3(C)C` [docetaxel], the “Effect with C. novyi-NT” value ([1]; 12.5 mg/kg × 1 (iv) with 3×108 C. novyi-NT spores iv) was “++ (10% to 50% shrinkage in tumor volume relative to pre-treatment size)”, the “Effect with C. novyi-NT” value ([1]; 25 mg/kg × 1 (iv) with 3×108 C. novyi-NT spores iv) was “+++ (>50% shrinkage in tumor volume relative to pre-treatment size)” and the “Effect with C. novyi-NT” value [1, 6] was “++++ (>20% cures)”. For the same compound, the “Effect with C. novyi-NT” value ([1]; 75 mg/kg × 1 (iv) with 3×108 C. novyi-NT spores iv) was “++++ (>20% cures)”, the Effect alone ([1]; 12.5 mg/kg × 1 (iv)) was “+” and the Effect alone ([1]; 25 mg/kg × 1 (iv)) was “++ (10% to 50% shrinkage in tumor volume relative to pre-treatment size)”. The Effect alone ([1]; 50 mg/kg × 1 (iv)) was “++++ (>20% cures)”, the Effect alone ([1]; 75 mg/kg × 1 (iv)) was “+++ (>50% shrinkage in tumor volume relative to pre-treatment size)” and the “blood flow to the tumors (Hoechst 33342 labelling)” value [4] was “no observable effects”. The “Glut-1 expression (hypoxia marker) in tumors” value [5] was “No increase”, the “increase in number of C. novyi-NT bacteria in tumor when co-injected with drug” value (C. novyi-NT) was 1.6 fold and the “# dead (treatment-related deaths)” value ([3]; drug dose 25.0 mg/kg) was 0. The “# dead (treatment-related deaths)” value ([3]; drug dose 50.0 mg/kg) was 0, the “# dead (treatment-related deaths)” value ([3]; drug dose 75.0 mg/kg) was 0 and the “Weight Loss (%)” value (Weight loss after COBALT; drug dose 50.0 mg/kg) was 11.0%.
